TGI and GI50 data for 19 compounds are collected here from PubChem BioAssay (NCI).

“And” between values parts separate entries of the source, which are not always exact repeats. Equal entries are not always repeated.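 Tested at 5 concentrations; 48 h exposure; 96-well plates; endpoints linearly interpolated, else capped at highest concentration. GI50 marks 50% less growth. TGI: concentration producing complete growth inhibition.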 A value given as a limit tells only on which side of the number the result lay.

What all share (test): growth of human tumour cells (NCI), 48 h
In assay [1] the test system is SNB-75 CNS.
Assay [2] concerns SR leukemia.
The test system of assay [3] is HCC-2998 colon.
In assay [4] the test system is HT29 colon.
Assay [5] has as its system NCI-H226 lung.
Assay [6] has as its system U251 CNS.
The test system of assay [7] is UACC-62 melanoma.
Assay [8] deals with SNB-19 CNS.
The subject of assay [9] is SK-MEL-2 melanoma.
Assay [10] relates to LOX IMVI melanoma.

On to `CCN1C(C)=NC2C(=O)c3ccccc3C(=O)C21` (configuration not stated), for which the TGI was above 100 µM in [1]; above 100 µM in assay [2]; 79.3 µM in assay [3]; above 100 µM in assay [4]; above 100 µM in assay [5]; above 100 µM in assay [6]. The TGI in assay [7], in assay [8], in [9] and in [10] was above 100 µM throughout.

In the case of `COc1ccc(-c2cc(-c3ccc(Nc4nc(Nc5ccc(Cl)cc5)nc(Nc5ccc(Cl)cc5)n4)cc3)no2)cc1`, the GI50 in assay [1] is 35.2 µM; in assay [2], 2.06 µM; in assay [3] it was 2.37 µM; in assay [4], 15.1 µM; in [5], 19.8 µM; in assay [6], 11.2 µM. Moreover, the GI50 in [7] is 23.1 µM; in [8], 27.4 µM; in [9] it was 17.1 µM; in assay [10], 12.2 µM. Also, the TGI in assay [1] is above 100 µM; in assay [2], 6.5 µM; in assay [3], 8.25 µM; in [4], 59.9 µM; in assay [5], 49.2 µM; in assay [6] it was above 100 µM. For the same compound, the TGI in assay [7] is 57.6 µM; in [8], above 100 µM; in assay [9] it was 57.5 µM; in [10], 34.9 µM.

As to `O=C1C2CC3C(CC2C(=O)[N]1[Sn]([c]1ccccc1)([c]1ccccc1)[c]1ccccc1)C1(Cl)C(Cl)=C(Cl)C3(Cl)C1(Cl)Cl` (configuration not stated), the GI50 is 0.0347 µM in [1]; 0.102 µM in assay [2]; 0.122 µM in [3]; 0.184 µM in assay [5]; 0.119 µM in assay [6]; 0.118 µM in [7]. Moreover, the results for the GI50 in assay [8], in assay [9] and in assay [10] were 0.163 µM, 0.167 µM and 0.0588 µM, respectively. Moreover, the TGI turned out to be 0.19 µM in assay [1]; 0.532 µM in [2]; 0.281 µM in assay [3]; 0.437 µM in [5]; 0.252 µM in assay [6]; 0.288 µM in assay [7]. In addition, the TGI was found to be 0.344 µM in assay [8], 0.351 µM in [9] and 0.184 µM in assay [10].

As to `COC(=O)C1=CC(O)CCC1c1ccc(OC)cc1` (configuration not stated), the TGI in assay [1], in [2], in assay [3], in assay [4], in assay [5] and in assay [6] was above 100 µM each time. Moreover, the TGI in assay [7], in [8], in assay [9] and in assay [10] was above 100 µM each time.

For `Cc1cc(NC(=O)c2ccc(NS(=O)(=O)CCO)cc2N2CCC3(CC2)CC3)nc(N2CCC(F)(F)CC2)n1`, the GI50 in assay [1] is 1.15 µM; in [2], 1.68 µM; in [3], 1.53 µM; in assay [4], 0.0755 µM; in assay [5], 2.09 µM; in [6], 1.5 µM. The GI50 was 12.3 µM in assay [7], 2.03 µM in assay [8], 15.8 µM in assay [9] and 7.05 µM in assay [10]. For the same compound, the TGI in assay [1] turned out to be 15.6 µM; in assay [2] it was 25.3 µM; in assay [3], 17.8 µM; in assay [4], 14.2 µM; in assay [5] it was 29.3 µM; in assay [6], 22.7 µM. Also, the TGI in assay [7] worked out at 24.9 µM; in assay [8], 21.6 µM; in assay [9], 31.1 µM; in assay [10], 27.3 µM.

Take `C=C(C)C1CC=C(C(=O)O)CC1` (configuration not stated): the TGI is 3780 µM in [1]; 4650 µM in assay [2]; 2340 µM in assay [3]; above 5000 µM in assay [4]; 2590 µM in assay [5]; 2630 µM in assay [6]. In addition, the TGI turned out to be 1450 µM in assay [7], 4330 µM in assay [8], 3220 µM in assay [9] and 3440 µM in [10].

For the compound `COc1cc(N2CCC(N3CCN(C)CC3)CC2)ccc1Nc1ncc(Cl)c(Nc2ccccc2P(C)(C)=O)n1`, the GI50 in assay [1] was 1.66 µM; in assay [3], 3.99 µM; in assay [4], 0.204 µM; in assay [5], 0.417 µM; in assay [6], 3.79 µM; in [7], 2.94 µM. For the same compound, the GI50 is 3.09 µM in assay [8], 2.67 µM in [9] and 2.8 µM in [10]. In addition, the TGI in [1] was 4.83 µM; in [2], above 33.6 µM; in assay [3], above 100 µM; in assay [4], 4.81 µM; in [5] it was 5.21 µM; in [6], above 100 µM. Also, the TGI in assay [7] is above 72.2 µM; in assay [8], above 100 µM; in [9], 30.6 µM.

Regarding `COc1ccc2cc(C(=O)c3ccccc3C(=O)O)ccc2c1`, the TGI in assay [1], in [2], in assay [3], in assay [4], in [5] and in [6] was above 100 µM each time. For the same compound, the TGI in [7], in assay [8], in [9] and in assay [10] was above 100 µM in each case.

For `O=S(=O)(NCCNc1cc(-c2cn(-c3ccccc3)nc2-c2cccc(O)c2)ccn1)c1ccc(C(F)(F)F)cc1`, the GI50 in [1] was 2.63 µM; in assay [2], 1.31 µM; in assay [3] it was 2.04 µM; in [4] it was 2.04 µM; in [5], 5.36 µM; in [6], 2.65 µM. Further, the GI50 is 1.78 µM in [7], 3.79 µM in assay [8], 2.36 µM in [9] and 1.7 µM in [10]. The TGI in [1] came out at 14 µM; in assay [2], 4.29 µM; in assay [3] it was 4.45 µM; in [4] it was 5.44 µM; in assay [5], 30.9 µM; in assay [6], 7.28 µM. For the same compound, the TGI in assay [7] stood at 3.98 µM; in assay [8], 17.4 µM; in assay [9], 7.22 µM; in assay [10], 3.29 µM.

`CCCCCCCCCCCCCCCCC1=CC(=O)C=C(OC)C1=O`: the TGI in assay [1] was above 100 µM; in assay [2], 92.7 µM; in assay [3] it was above 100 µM; in assay [4], above 100 µM; in assay [5], above 100 µM; in assay [6], 93.8 µM. In addition, the TGI in [7], in assay [8], in assay [9] and in assay [10] was above 100 µM in each case.

For the compound `C[C@]12CCC[C@H](OC=O)C1(O)C[C@H](C(=O)O)CC2` (some centres not stated), the TGI in assay [1], in assay [2], in assay [3], in assay [4], in [5] and in assay [6] was above 100 µM each time. Moreover, the TGI in assay [7] was 32.5 µM; in [8] it was above 100 µM; in assay [9] it was above 100 µM; in [10] it was above 100 µM.

On to `N=c1nc(N)c2cc3c(N)nc(=N)c3cc12`, for which the TGI was 42.6 µM in [1]; 56.5 µM in [2]; above 100 µM in [3]; above 100 µM in assay [4]; 44.7 µM in assay [5]; 43.5 µM in assay [6]. In addition, the TGI is 23.5 µM in assay [7], above 100 µM in assay [8], above 46.5 µM in assay [9] and above 52.2 µM in assay [10].

Regarding `CCN(Cc1ccc(F)cc1)c1ccc(CO)c(Cl)c1`, the GI50 in assay [1] was 4.58 µM; in assay [2], 15.3 µM; in assay [3], 10.3 µM; in assay [4], 3.02 µM; in [5], 0.0306 µM; in [6], 0.654 µM. Also, the GI50 in [7] is 0.0693 µM; in assay [8], 19.6 µM; in [9] it was 2.03 µM; in assay [10], 7.76 µM. Also, the TGI in assay [1] was determined as 39.6 µM; in [2], 51.5 µM; in [3] it was 28.3 µM; in assay [4] it was 16.1 µM; in assay [5], 0.116 µM; in assay [6], 15.1 µM. The TGI in assay [7] is 0.522 µM; in [8], above 59.8 µM; in assay [9], 13.9 µM; in assay [10], 20.7 µM.

For the compound `O=C1C=C(Nc2ccccc2)c2ncccc2C1=O`, the GI50 is 1.58 µM in assay [1]; 0.691 µM in assay [2]; 1.55 µM in assay [3]; 2.78 µM in [4]; 1.71 µM in assay [5]; 0.348 µM in [6]. Moreover, the GI50 was 0.224 µM in assay [7], 0.411 µM in assay [8], 1.91 µM in assay [9] and 0.208 µM in [10]. Besides, the TGI was 2.94 µM in [1]; above 100 µM in [2]; 3 µM in [3]; above 26.7 µM in [4]; 3.61 µM in assay [5]; 1.2 µM in [6]. Further, the TGI in assay [7] was determined as 0.521 µM; in assay [8], 1.43 µM; in assay [9], 3.67 µM; in assay [10], 0.514 µM.

`O=S(=O)(/C=C/C=C/S(=O)(=O)c1ccccc1)c1ccccc1`: the GI50 is 13.9 µM in assay [1]; 1.4 µM in [4]; 1.24 µM in [5]; 2.7 µM in [6]; 0.352 µM in assay [7]; 1.4 µM in assay [9]. For the same compound, the GI50 in [10] is 1.42 µM. For the same compound, the TGI in [1] was 26.8 µM; in [2], 2.29 µM and 0.934 µM; in assay [3] it was 25.1 µM; in assay [4], 2.69 µM and 2.85 µM; in assay [5] it was 4.85 µM; in assay [6] it was 11 µM. Further, the TGI in assay [7] is 2.43 µM and 1.88 µM; in assay [8] it was 31.2 µM; in assay [9] it was 5.68 µM and 3.47 µM; in assay [10] it was 2.42 µM and 3.33 µM.

`CCCCCCCC[N+](C)(C)Cc1ccc(C[N+](C)(C)CCCCCCCC)cc1`: the TGI in [1], in [2], in [3], in assay [4], in assay [5] and in assay [6] was above 100 µM each time. The TGI in [7], in [8], in assay [9] and in [10] was above 100 µM throughout.

On to `O=C(O)C1C2C=CC(O2)C1C(=O)Nc1ccccc1` (configuration not stated), for which the TGI in assay [1], in assay [2], in assay [4], in assay [5], in assay [6] and in assay [7] was above 100 µM in each case. The TGI in assay [8], in assay [9] and in [10] was above 100 µM throughout.

Turning to `O=C(O)C(=O)Cc1ccc2c(c1)OCO2`, the TGI in assay [1], in assay [2], in [4], in [5], in assay [6] and in assay [7] was above 100 µM each time. Further, the TGI in assay [8], in assay [9] and in [10] was above 100 µM each time.

In the case of `Cc1ccc(-c2csc(N(C(=O)N3CCN(c4cc5c(cc4F)c(=O)c(C(=O)O)cn5C4CC4)CC3)c3ccccc3)n2)cc1`, the GI50 was 0.357 µM in assay [1]; 0.238 µM in assay [2]; 0.537 µM in [3]; 0.338 µM in [5]; 0.368 µM in assay [6]; 0.383 µM in assay [8]. Also, the GI50 was 0.344 µM in assay [9] and 0.305 µM in assay [10]. Besides, the TGI in assay [1] is 4.17 µM; in assay [2], above 100 µM; in [3], above 100 µM; in assay [5], above 100 µM; in assay [6], 6.73 µM; in assay [8] it was above 60 µM. For the same compound, the TGI in [9] is 1.75 µM; in [10], above 100 µM.
